Data: patent US20230141603A1, “BENZODIAZEPINE DERIVATIVES AS GABA A GAMMA1 PAM” (Hoffmann-La Roche Inc., priority 2021, published 2023)

Target: T1, h-GABAA α1β2γ1 (Homo sapiens, UniProt P14867+Q8N1C3)
T1 construct: expressed in transfected cells; host or cells: HEK293F cells (ThermoFisher R79007), membranes
T1 sequence (P14867 28-456): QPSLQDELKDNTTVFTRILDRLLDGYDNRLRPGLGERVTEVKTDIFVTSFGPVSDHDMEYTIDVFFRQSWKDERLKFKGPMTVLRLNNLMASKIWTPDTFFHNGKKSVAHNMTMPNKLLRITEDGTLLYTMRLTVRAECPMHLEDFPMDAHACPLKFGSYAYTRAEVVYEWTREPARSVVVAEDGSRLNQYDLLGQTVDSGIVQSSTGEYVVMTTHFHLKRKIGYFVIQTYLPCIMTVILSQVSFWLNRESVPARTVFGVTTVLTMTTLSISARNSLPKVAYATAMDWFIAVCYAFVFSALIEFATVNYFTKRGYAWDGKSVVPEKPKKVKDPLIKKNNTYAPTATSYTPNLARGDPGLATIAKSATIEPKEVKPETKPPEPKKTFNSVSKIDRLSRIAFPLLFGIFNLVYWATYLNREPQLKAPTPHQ
T1 sequence (P47870 25-512 partner limits assumed): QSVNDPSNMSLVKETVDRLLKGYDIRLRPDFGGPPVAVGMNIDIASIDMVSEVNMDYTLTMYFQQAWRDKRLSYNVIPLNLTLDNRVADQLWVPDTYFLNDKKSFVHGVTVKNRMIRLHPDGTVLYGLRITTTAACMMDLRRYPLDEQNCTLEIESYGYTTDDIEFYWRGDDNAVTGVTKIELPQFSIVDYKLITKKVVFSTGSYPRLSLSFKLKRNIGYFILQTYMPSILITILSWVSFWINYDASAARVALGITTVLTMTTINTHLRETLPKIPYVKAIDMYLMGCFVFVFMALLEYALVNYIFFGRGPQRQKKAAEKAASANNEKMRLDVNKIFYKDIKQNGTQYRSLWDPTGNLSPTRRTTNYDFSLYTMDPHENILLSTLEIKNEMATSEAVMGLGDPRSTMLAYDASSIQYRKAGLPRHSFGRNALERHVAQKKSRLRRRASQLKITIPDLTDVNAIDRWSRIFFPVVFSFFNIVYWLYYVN
T1 sequence (Q8N1C3 36-465): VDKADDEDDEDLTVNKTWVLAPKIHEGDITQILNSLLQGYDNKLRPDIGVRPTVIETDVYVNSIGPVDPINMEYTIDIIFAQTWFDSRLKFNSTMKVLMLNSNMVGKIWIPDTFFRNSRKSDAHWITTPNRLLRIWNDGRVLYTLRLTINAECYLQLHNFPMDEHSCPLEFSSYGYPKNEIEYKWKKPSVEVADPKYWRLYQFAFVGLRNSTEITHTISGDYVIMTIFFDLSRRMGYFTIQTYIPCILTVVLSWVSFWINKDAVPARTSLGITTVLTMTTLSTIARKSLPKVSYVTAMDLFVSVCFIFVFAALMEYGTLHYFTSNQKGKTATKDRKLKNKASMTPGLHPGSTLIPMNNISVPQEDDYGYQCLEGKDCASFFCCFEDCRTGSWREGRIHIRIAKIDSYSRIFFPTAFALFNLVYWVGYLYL
Test: Radioligand binding assay, [3H]RO7239181 competition, HEK293F membranes

| SMILES | Ki [nM] |
| --- | --- |
| Fc1cccc(F)c1C1=NCc2nnc(-c3cccnn3)n2-c2ccc(C(F)(F)F)c(Cl)c21 [Example 38, 7-chloro-6-(2,6-difluorophenyl)-1-pyridazin-3-yl-8-(trifluoromethyl)-4H-[1,2,4]triazolo[4,3-a][1,4]benzodiazepine] | 28 |
| Fc1cccc(F)c1C1=NCc2nnc(-c3cccnn3)n2-c2ccc(I)c(Cl)c21 [Example 39, 7-chloro-6-(2,6-difluorophenyl)-8-iodo-1-pyridazin-3-yl-4H-[1,2,4]triazolo[4,3-a][1,4]benzodiazepine] | 4.7 |
| Cc1nnc2n1-c1ccc(C(F)(F)F)c(Cl)c1C(c1c(F)cccc1F)=NC2 [Example 40, 7-chloro-6-(2,6-difluorophenyl)-1-methyl-8-(trifluoromethyl)-4H-[1,2,4]triazolo[4,3-a][1,4]benzodiazepine] | 20.8 |
| Cc1nnc2n1-c1ccc(I)c(Cl)c1C(c1c(F)cccc1F)=NC2 [Example 41, 7-chloro-6-(2,6-difluorophenyl)-8-iodo-1-methyl-4H-[1,2,4]triazolo[4,3-a][1,4]benzodiazepine] | 4.8 |
| Fc1cccc(F)c1C1=NCc2nnc(-c3cccnn3)n2-c2ccc(Br)c(Br)c21 [Example 42, 7,8-dibromo-6-(2,6-difluorophenyl)-1-pyridazin-3-yl-4H-[1,2,4]triazolo[4,3-a][1,4]benzodiazepine] | 7.2 |
| Fc1cccc(F)c1C1=NCc2nnc(-c3ccncn3)n2-c2ccc(Br)c(Br)c21 [Example 43, 7,8-dibromo-6-(2,6-difluorophenyl)-1-pyrimidin-4-yl-4H-[1,2,4]triazolo[4,3-a][1,4]benzodiazepine] | 8.4 |
| Clc1cccnc1C1=NCc2nnc(-c3ccncn3)n2-c2ccc(Br)c(Cl)c21 [Example 44, 8-bromo-7-chloro-6-(3-chloro-2-pyridyl)-1-pyrimidin-4-yl-4H-[1,2,4]triazolo[4,3-a][1,4]benzodiazepine] | 11.5 |
| Fc1cccnc1C1=NCc2nnc(-c3cccnn3)n2-c2ccc(Br)c(Cl)c21 [Example 45, 8-bromo-7-chloro-6-(3-fluoro-2-pyridyl)-1-pyridazin-3-yl-4H-[1,2,4]triazolo[4,3-a][1,4]benzodiazepine] | 54.4 |
| Fc1cccnc1C1=NCc2nnc(-c3ccncn3)n2-c2ccc(Br)c(Cl)c21 [Example 46, 8-bromo-7-chloro-6-(3-fluoro-2-pyridyl)-1-pyrimidin-4-yl-4H-[1,2,4]triazolo[4,3-a][1,4]benzodiazepine] | 60.5 |
| Clc1cccnc1C1=NCc2nnc(-c3cccnn3)n2-c2ccc(Br)c(Cl)c21 [Example 47, 8-bromo-7-chloro-6-(3-chloro-2-pyridyl)-1-pyridazin-3-yl-4H-[1,2,4]triazolo[4,3-a][1,4]benzodiazepine] | 7 |
| Cc1ccc2c(c1Cl)C(c1c(F)cccc1F)=NCc1nnc(-c3cccnn3)n1-2 [Example 48, 7-chloro-6-(2,6-difluorophenyl)-8-methyl-1-pyridazin-3-yl-4H-[1,2,4]triazolo[4,3-a][1,4]benzodiazepine] | 20.8 |
| Cc1ccc2c(c1Cl)C(c1c(F)cccc1F)=NCc1nnc(-c3ccncn3)n1-2 [Example 49, 7-chloro-6-(2,6-difluorophenyl)-8-methyl-1-pyrimidin-4-yl-4H-[1,2,4]triazolo[4,3-a][1,4]benzodiazepine] | 40.5 |
| Cc1nnc2n1-c1ccc(Br)c(Cl)c1C(c1c(F)cccc1Cl)=NC2 [Example 50, 8-bromo-7-chloro-6-(2-chloro-6-fluoro-phenyl)-1-methyl-4H-[1,2,4]triazolo[4,3-a][1,4]benzodiazepine] | 8.9 |
| Fc1cccnc1C1=NCc2nnc(-c3cccnn3)n2-c2ccc(Cl)c(Cl)c21 [Example 54, 7,8-dichloro-6-(3-fluoro-2-pyridyl)-1-pyridazin-3-yl-4H-[1,2,4]triazolo[4,3-a][1,4]benzodiazepine] | 121 |
| Fc1cccnc1C1=NCc2nnc(-c3ccncn3)n2-c2ccc(Cl)c(Cl)c21 [Example 55, 7,8-dichloro-6-(3-fluoro-2-pyridyl)-1-pyrimidin-4-yl-4H-[1,2,4]triazolo[4,3-a][1,4]benzodiazepine] | 133 |
| COc1ccc2c(c1Cl)C(c1c(F)cccc1F)=NCc1nnc(-c3cccnn3)n1-2 [Example 57, 7-chloro-6-(2,6-difluorophenyl)-8-methoxy-1-pyridazin-3-yl-4H-[1,2,4]triazolo[4,3-a][1,4]benzodiazepine] | 170 |
| Cn1cc(-c2nnc3n2-c2ccc(Cl)c(Cl)c2C(c2ncccc2F)=NC3)cn1 [Example 58, 7,8-dichloro-6-(3-fluoro-2-pyridyl)-1-(1-methylpyrazol-4-yl)-4H-[1,2,4]triazolo[4,3-a][1,4]benzodiazepine] | 131 |
| O=c1[nH]nc2n1-c1ccc(Cl)c(Cl)c1C(c1ncccc1F)=NC2 [Example 59, 7,8-dichloro-6-(3-fluoro-2-pyridyl)-2,4-dihydro-[1,2,4]triazolo[4,3-a][1,4]benzodiazepin-1-one] | 54 |
| Fc1cccnc1C1=NCc2nncn2-c2ccc(Cl)c(Cl)c21 [Example 60, 7,8-dichloro-6-(3-fluoro-2-pyridyl)-4H-[1,2,4]triazolo[4,3-a][1,4]benzodiazepine] | 161 |
| COc1ccc2c(c1Cl)C(c1c(F)cccc1F)=NCc1nnc(-c3ccncn3)n1-2 [Example 61, 7-chloro-6-(2,6-difluorophenyl)-8-methoxy-1-pyrimidin-4-yl-4H-[1,2,4]triazolo[4,3-a][1,4]benzodiazepine] | 119 |
| COc1ccc2c(c1Cl)C(c1c(F)cccc1F)=NCc1nnc(-c3cccnc3)n1-2 [Example 62, 7-chloro-6-(2,6-difluorophenyl)-8-methoxy-1-(3-pyridyl)-4H-[1,2,4]triazolo[4,3-a][1,4]benzodiazepine] | 161 |
| Fc1cccnc1C1=NCc2nnc(C3CC3)n2-c2ccc(Cl)c(Cl)c21 [Example 65, 7,8-dichloro-1-cyclopropyl-6-(3-fluoro-2-pyridyl)-4H-[1,2,4]triazolo[4,3-a][1,4]benzodiazepine] | 110 |
| Fc1cccnc1C1=NCc2nnc(-c3ccncn3)n2-c2ccc(C(F)(F)F)c(Cl)c21 [Example 69, 7-chloro-6-(3-fluoro-2-pyridyl)-1-pyrimidin-4-yl-8-(trifluoromethyl)-4H-[1,2,4]triazolo[4,3-a][1,4]benzodiazepine] | 139 |
| Cn1cc(-c2nnc3n2-c2ccc(C(F)(F)F)c(Cl)c2C(c2ncccc2F)=NC3)cn1 [Example 70, 7-chloro-6-(3-fluoro-2-pyridyl)-1-(1-methylpyrazol-4-yl)-8-(trifluoromethyl)-4H-[1,2,4]triazolo[4,3-a][1,4]benzodiazepine] | 275 |
| Cc1nnc2n1-c1ccc(Cl)c(Cl)c1C(c1ncccc1F)=NC2 [Example 71, 7,8-dichloro-6-(3-fluoro-2-pyridyl)-1-methyl-4H-[1,2,4]triazolo[4,3-a][1,4]benzodiazepine] | 178 |
| Fc1cccnc1C1=NCc2nnc(-c3cccnn3)n2-c2ccc(C(F)(F)F)c(Cl)c21 [Example 72, 7-chloro-6-(3-fluoro-2-pyridyl)-1-pyridazin-3-yl-8-(trifluoromethyl)-4H-[1,2,4]triazolo[4,3-a][1,4]benzodiazepine] | 274 |
| Fc1cccnc1C1=NCc2nnc(C3CC3)n2-c2ccc(Br)c(Cl)c21 [Example 77, 8-bromo-7-chloro-1-cyclopropyl-6-(3-fluoro-2-pyridyl)-4H-[1,2,4]triazolo[4,3-a][1,4]benzodiazepine] | 41.5 |
